Test results as given in US9095534B2, “Intermittent dosing of nitric oxide gas” (SENSORMEDICS CORPORATION, priority 2004, dated 2015).

Key:
[1] = tested on: E. coli; experiment: Survival of bacteria under cycled high/low NO gas exposure (cfu/ml); assay type: cell-based; details: 160 ppm for 30 minutes then 20 ppm for 3.5 hours, cycled every 4 hours for 24 hours; compared to air; FIG. 9
Procedure: (§1) The effectiveness of the intermittent nigh dose delivery of […] oxide gas in combating microorganisms was tested and verified. Briefly, the experimental methods were as follows. Inoculums of varying bacteria was prepared to a suspension of 2.5×10^8 cfu/ml, and diluted 1:1000 in sterile normal saline. Three milliliters of the inoculums were used per well in a sterile culture place. Exposure of the inoculums were performed in an exposure chamber, which has been described for example, in Gliafarri, A. et al., “A direct nitric oxide gas delivery system for bacterial and mammalian cell cultures,” Nitric Oxide. 12(3):129-40 (May 2005), which is hereby incorporated by reference as if fully set forth herein. The inoculums were exposed to 160 ppm of NO gas at a flow rate of 2.5 liters per minute for 30 minutes followed by exposure to 20 ppm of NO gas for 3.5 hours. The exposure to high and low concentrations of NO gas was repeatedly cycled every 4 hours for 24 hours. At various times (e.g., 0, 4, 8, and 12 hours), samples were taken and plated to determine the survivability of the bacteria as determined by counting cfu/ml.

[2] = tested on: P. aeruginosa (ATCC #27853); experiment: as above; assay type: cell-based; details: 160 ppm for 30 minutes then 20 ppm for 3.5 hours, cycled every 4 hours for 24 hours; compared to air; FIG. 7
Procedure: as §1

[3] = tested on: P. aeruginosa (clinical strain from Cystic Fibrosis); experiment: as above; assay type: cell-based; details: 160 ppm for 30 minutes then 20 ppm for 3.5 hours, cycled every 4 hours for 24 hours; compared to air; FIG. 8
Procedure: as §1

[4] = tested on: S. aureus (ATCC #25923); experiment: as above; assay type: cell-based; details: 160 ppm for 30 minutes then 20 ppm for 3.5 hours, cycled every 4 hours for 24 hours; compared to air; FIG. 6
Procedure: as §1

[5] = tested on: Mycobacteria; experiment: Sensitivity of various microorganisms to NO gas damage; assay type: cell-based; details: relative to other microorganisms studied
Procedure: (§2) Additional studies were performed to test the hypothesis that the effect of NO gas in killing microorganisms is related to thiol function. […] This may be due to Mycobacteria having an exceptional thiol, mycothiol, that maintains the redox balance in the cell and protects the cell from nitrosative and oxidative stress. In order to test this hypothesis, sensitivities to NO gas was compared between mycothiol-deficient Mycobacterium smegmatis Mutant MshA to its wild type counterpart, mc^2155 by exposing both strains to 200 ppm of NO gas. MshA is an enzyme needed in mycothiol biosynthesis.

[6] = tested on: mycothiol-deficient Mycobacterium smegmatis Mutant MshA; experiment: Survival of mycothiol-deficient mutant versus wild type on exposure to NO gas; assay type: cell-based; details: 200 ppm NO gas; FIG. 10
Procedure: as §2

[7] = tested on: mycothiol in wild type M. smegmatis; experiment: Mycothiol level by HPLC after exposure to NO gas; assay type: cell-based, Mycobacterium smegmatis; details: 400 ppm NO gas, compared to exposure to air, FIG. 11
Procedure: Further experiments were conducted to assay and measure the mycothiol level using HPLC in wild type M. smegmatis after exposure to 400 ppm NO gas and were compared to mycothiol level after exposure to air.

## [N]=O [nitric oxide]
[1]
  survival of E. coli: effective method of killing the bacteria
[2]
  survival of P. aeruginosa (ATCC #27853): effective method of killing the bacteria
[3]
  survival of P. aeruginosa (clinical strain from Cystic Fibrosis): effective method of killing the bacteria
[4]
  survival of S. aureus (ATCC #25923): effective method of killing the bacteria
[5]
  sensitivity of Mycobacteria to NO gas damage: less sensitive to NO gas damage
[6]
  sensitivity of MshA mutant to NO gas versus wild type mc^2155: more sensitive to NO gas than its wild type counterpart
  time to kill MshA mutant versus wild type mc^2155: killed in less time than its wild type counterpart
[7]
  level of mycothiol in wild type M. smegmatis: reduced compared to exposure to air
